Experimental data reported in patent publication US11014926B2, “Pyrrolo-, pyrazolo-, imidazo-pyrimidine and pyridine compounds that inhibit MNK1 and MNK2” (EFFECTOR THERAPEUTICS, INC., priority 2015, dated 2021).
Counter-ions that a name gives are not always drawn. Like-named read-outs stand apart in the source and are kept apart here.

Key:
[1] = biological target: recombinant MNK2 (Homo sapiens (Human), UniProt Q9HBH9); test: MNK Biochemical Enzymatic Assay (ADP-Glo kinase assay), MNK2
Protocol: Compounds are screened for MNK inhibition using the ADP-Glo kinase assay kit (Promega, catalogue No. V9101). All kinase reactions are performed in Reaction Buffer E (15 mM HEPES pH7.4, 20 mM NaCl, 1 mM EGTA, 10 mM MgCl2, 0.1 mg/ml BGG, and 0.02% Tween-20). […] Final DMSO concentration in each reaction is 1%.
(§1) Kinase reactions are carried out in 96-well half-area white flat-bottom polystyrene plates in a final volume of 25 μl. MNK1/2 enzymes are pre-incubated with compound and peptide substrate for 5 minutes prior to the addition of ATP. After the addition of ATP, kinase reactions are incubated at room temperature for 40 minutes. Reactions are subsequently stopped by the addition of 25 μl of ADP-Glo Reagent and incubating for an additional 40 minutes. The final luminescent signal used for kinase activity readout is produced by the addition of 45 μl of Kinase Detection Reagent (ADP-Glo kit, Promega) and incubating for 40 minutes. The luminescent signal is detected using a Victor 2 multilabel counter (Perkin Elmer) and the concentration of compound necessary to achieve inhibition of enzyme activity by 50% (IC50) is calculated using signals from an 8-point compound dilution series.

[2] = system: Phosphorylated eIF4E; test: peIF4E Signaling Cellular Assay (CisBio peIF4E HTRF); type: cell-based; details: cells incubated with compound for 2 hrs at 37° C.
Protocol: Phosphorylated eIF4E is assayed using the CisBio peIF4E HTRF® assay kit (CisBio, catalogue No. 64EF4PEG). Cells are plated in 96-well tissue-culture treated plate in appropriate growth medium (90 μL). Compounds (10×) are diluted using 3-fold serial dilutions in cell culture medium and added to cells. Plates are incubated for 2 hrs at 37° C. The cell supernatant is carefully removed either by aspirating supernatant or by flicking the plate. Immediately 50 μL of supplemented lysis buffer (IX) is added and incubated for at least 30 minutes at room temperature under shaking. After homogenization by pipetting up and down, 16 μL of cell lysate is transferred from the 96-well cell-culture plate to a 384-well small volume white plate, 4 μL of premixed antibody solutions (vol/vol) is prepared in the detection buffer and added. The plate is covered with a plate sealer and incubated overnight at room temperature. The fluorescence emissions at two different wavelengths are read (665 nm and 620 nm) on a Wallac Victor2. Emission ratios are converted into percent inhibitions and imported into GraphPad Prism software. […] IC50 values are determined using a nonlinear regression model available in GraphPad Prism 5.
To this end, IC50 values of less than 0.05 μM are labeled as “+++”, from 0.05 to 1.0 μM are labeled as “++”, greater than 1.0 to 100 μM are labeled as “+”, and NA means “not available”.

[3] = biological target: recombinant MNK1 (Homo sapiens (Human), UniProt Q9BUB5); test: MNK Biochemical Enzymatic Assay (ADP-Glo kinase assay), MNK1; details: 10 nM recombinant MNK1, 300 μM ATP
recombinant MNK1, sequence (Q9BUB5 whole entry): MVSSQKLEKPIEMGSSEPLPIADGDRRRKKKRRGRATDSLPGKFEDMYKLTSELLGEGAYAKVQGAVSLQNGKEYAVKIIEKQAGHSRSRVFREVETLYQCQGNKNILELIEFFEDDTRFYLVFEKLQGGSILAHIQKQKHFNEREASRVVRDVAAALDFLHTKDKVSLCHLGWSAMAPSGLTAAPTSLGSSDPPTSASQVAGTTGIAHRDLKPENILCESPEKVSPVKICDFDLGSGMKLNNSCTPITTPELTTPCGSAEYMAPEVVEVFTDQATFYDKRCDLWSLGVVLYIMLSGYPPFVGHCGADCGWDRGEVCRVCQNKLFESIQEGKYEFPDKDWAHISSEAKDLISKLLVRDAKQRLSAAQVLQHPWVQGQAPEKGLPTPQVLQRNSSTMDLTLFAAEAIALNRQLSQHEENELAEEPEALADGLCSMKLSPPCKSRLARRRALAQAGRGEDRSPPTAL
Protocol: Compounds are screened for MNK inhibition using the ADP-Glo kinase assay kit (Promega, catalogue No. V9101). All kinase reactions are performed in Reaction Buffer E (15 mM HEPES pH7.4, 20 mM NaCl, 1 mM EGTA, 10 mM MgCl2, 0.1 mg/ml BGG, and 0.02% Tween-20). Final MNK 1 reactions contained 10 nM recombinant MNK1 (Life Technologies, PR9138A), 100 μM MNK substrate peptide Ac-TATKSGSTTKNR-NH2 (American Peptide Company), 300 μM ATP, and varying concentrations of the inhibitory compound of interest. Final MNK2 reactions contained 3 nM recombinant MNK2 (Life Technologies, PV5607), 50 μM MNK substrate peptide Ac-TATKSGSTTKNR-NH2 (American Peptide Company), 10 μM ATP, and varying concentrations of the inhibitory compound of interest. Final DMSO concentration in each reaction is 1%.
as §1
To this end, IC50 values of less than 0.01 μM are labeled as “+++”, from 0.01 to 0.1 μM are labeled as “++”, and greater than 0.1 to 10.0 μM are labeled as “+” (NA means “not available”).

[4] = 3 nM recombinant MNK2, 10 μM ATP, read-out: IC50 Mnk2

recombinant MNK2, sequence (Q9HBH9 whole entry): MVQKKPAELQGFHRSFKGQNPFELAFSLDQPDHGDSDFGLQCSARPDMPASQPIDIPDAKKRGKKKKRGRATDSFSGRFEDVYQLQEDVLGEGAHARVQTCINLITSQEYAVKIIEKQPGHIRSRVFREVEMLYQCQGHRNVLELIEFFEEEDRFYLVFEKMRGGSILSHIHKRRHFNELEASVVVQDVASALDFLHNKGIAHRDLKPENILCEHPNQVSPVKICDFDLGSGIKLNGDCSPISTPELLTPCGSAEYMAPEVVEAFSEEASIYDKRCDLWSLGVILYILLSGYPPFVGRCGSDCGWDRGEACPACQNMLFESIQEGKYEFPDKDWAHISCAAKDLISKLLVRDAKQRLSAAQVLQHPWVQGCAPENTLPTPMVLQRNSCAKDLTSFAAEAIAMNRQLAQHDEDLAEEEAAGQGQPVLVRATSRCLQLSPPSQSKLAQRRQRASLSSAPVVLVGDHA

IC50 [1, 4]	SMILES	IC50 [1]	IC50 [2]	IC50 [3]
–	O=C1NCc2cc(-n3ccc4cnccc43)ncc21 [Cpd. No. 11, 6-(1H-pyrrolo[3,2-c]pyridin-1-yl)-1H-pyrrolo[3,4-c]pyridin-3(2H)-one]	100 to 10000 nM	1000 to 100000 nM	–
–	O=C1NC2(CCCCC2)c2cc(-n3ccc4cncnc43)cc(Cl)c21 [Cpd. No. 29, 4′-chloro-6′-(7H-pyrrolo[2,3-d]pyrimidin-7-yl)spiro[cyclohexane-1,1′-isoindolin]-3′-one]	10 to 100 nM	< 50 nM	–
–	c1ncc2ccn(-c3ccc4c(c3)CSC4)c2n1 [Cpd. No. 13, 7-(1,3-dihydrobenzo[c]thiophen-5-yl)-7H-pyrrolo[2,3-d]pyrimidine]	100 to 10000 nM	–	–
–	O=C1NCc2cc(-n3ccc4cncnc43)cc(F)c21 [Cpd. No. 23, 7-fluoro-5-(7H-pyrrolo [2,3-d]pyrimidin-7-yl) isoindolin-1-one]	100 to 10000 nM	–	–
–	O=C1NCc2cc(-n3cc(-c4ccccc4Cl)c4cncnc43)ccc21 [Cpd. No. 24, 5-(5-(2-chlorophenyl)-7H-pyrrolo [2,3-d]pyrimidin-7-yl) isoindolin-1-one]	100 to 10000 nM	–	–
–	Nc1ncnc2c1ccn2-c1ccc2c(c1)CNC2=O [Cpd. No. 12, 5-(4-amino-7H-pyrrolo [2,3-d]pyrimidin-7-yl) isoindolin-1-one]	100 to 10000 nM	–	–
–	Cn1cc(-c2cn(-c3ccc4c(c3)CNC4=O)c3ncncc23)cn1 [Cpd. No. 8, 5-(5-(1-methyl-1H-pyrazol-4-yl)-7H-pyrrolo[2,3-d]pyrimidin-7-yl)isoindolin-1-one]	10 to 100 nM	1000 to 100000 nM	10 to 100 nM
–	c1cc2cc(-n3ccc4cncnc43)ccc2cn1 [Cpd. No. 6, 6-(7H-pyrrolo[2,3-d]pyrimidin-7-yl)isoquinoline]	100 to 10000 nM	1000 to 100000 nM	–
–	CC1NC(=O)c2ccc(N3CCc4cncnc43)cc21 (stereo not drawn) [Cpd. No. 3, 3-methyl-5-(5H-pyrrolo[2,3-d]pyrimidin-7(6H)-yl)isoindolin-1-one]	100 to 10000 nM	1000 to 100000 nM	–
–	CC1NC(=O)c2ccc(-n3ccc4cncnc43)cc21 (stereo not drawn) [Cpd. No. 2, 3-methyl-5-(7H-pyrrolo[2,3-d]pyrimidin-7-yl)isoindolin-1-one]	100 to 10000 nM	–	–
–	Cc1cc(-n2ccc3c(N)ncnc32)cc2c1C(=O)NC21CCN(C)CC1 [Cpd. No. 31, 6-(4-amino-7H-pyrrolo [2,3-d]pyrimidin-7-yl)-1′,4-dimethylspiro[isoindoline-1,4′-piperidin]-3-one]	–	50 to 1000 nM	–
–	CC1NC(=O)c2c(Cl)cc(-n3ccc4cncnc43)cc21 (stereo not drawn) [Cpd. No. 17, 7-chloro-3-methyl-5-(7H-pyrrolo [2,3-d]pyrimidin-7-yl) isoindolin-1-one]	10 to 100 nM	50 to 1000 nM	< 10 nM
–	O=C1NCc2cc(-n3ccc4cncnc43)ccc21 [Cpd. No. 1, 5-(7H-pyrrolo[2,3-d]pyrimidin-7-yl)isoindolin-1-one]	100 to 10000 nM	1000 to 100000 nM	100 to 10000 nM
–	Cc1cc(-n2ccc3cncnc32)cc2c1C(=O)NC2C (stereo not drawn) [Cpd. No. 22, 3,7-dimethyl-5-(7H-pyrrolo[2,3-d]pyrimidin-7-yl)isoindolin-1-one]	10 to 100 nM	1000 to 100000 nM	10 to 100 nM
< 10 nM	Nc1ncnc2c1ccn2-c1cc(Cl)c2c(c1)C1(CCCCC1)NC2=O [Cpd. No. 28, 6′-(4-amino-7H-pyrrolo[2,3-d]pyrimidin-7-yl)-4′-chlorospiro[cyclohexane-1,1′-isoindolin]-3′-one]	–	< 50 nM	–
–	O=C1NCc2cc(-n3ncc4cnccc43)ccc21 [Cpd. No. 4, 5-(1H-pyrazolo[4,3-c]pyridin-1-yl)isoindolin-1-one]	100 to 10000 nM	–	–

IC50 [1, 4]	SMILES	IC50 [1]	IC50 [2]	IC50 [3]
< 10 nM	O=C1NC2(CCCC2)c2cc(-n3ccc4cncnc43)cc(Cl)c21 [Cpd. No. 27, 4′-chloro-6′-(7H-pyrrolo[2,3-d]pyrimidin-7-yl)spiro[cyclopentane-1,1′-isoindolin]-3′-one]	–	50 to 1000 nM	–
–	NCC1NC(=O)c2ccc(-n3ccc4cncnc43)cc21 (stereo not drawn) [Cpd. No. 21, 3-(aminomethyl)-5-(7H-pyrrolo[2,3-d]pyrimidin-7-yl)isoindolin-1-one hydrochloride]	100 to 10000 nM	–	–
–	O=C1NCc2cc(-n3cnc4cncnc43)ccc21 [Cpd. No. 16, 5-(9H-purin-9-yl) isoindolin-1-one]	100 to 10000 nM	–	–
–	O=C1NCc2cc(-n3cc(-c4ccncc4)c4cncnc43)ccc21 [Cpd. No. 19, 5-(5-(pyridin-4-yl)-7H-pyrrolo[2,3-d]pyrimidin-7-yl)isoindolin-1-one]	100 to 10000 nM	–	–
–	Cc1cc(-n2ccc3c(N)ncnc32)nc2c1C(=O)NC21CCCCC1 [Cpd. No. 34, 2′-(4-amino-7H-pyrrolo[2,3-d]pyrimidin-7-yl)-4′-methylspiro[cyclohexane-1,7′-pyrrolo[3,4-b]pyridin]-5′(6′H)-one]	–	< 50 nM	–
–	COC(=O)NCC1NC(=O)c2ccc(-n3ccc4cncnc43)cc21 (stereo not drawn) [Cpd. No. 20, methyl ((3-oxo-6-(7H-pyrrolo[2,3-d]pyrimidin-7-yl)isoindolin-1-yl)methyl)carbamate]	100 to 10000 nM	–	–
< 10 nM	Nc1ncnc2c1ccn2-c1cc(Cl)c2c(c1)C1(CCCC1)NC2=O [Cpd. No. 30, 6′-(4-amino-7H-pyrrolo[2,3-d]pyrimidin-7-yl)-4′-chlorospiro[cyclopentane-1,1′-isoindolin]-3′-one]	–	< 50 nM	–
–	Cc1cc(-n2ccc3c(N)ncnc32)cc2c1C(=O)NC21CCN(CC(F)F)CC1 [Cpd. No. 33, 6-(4-amino-7H-pyrrolo[2,3-d]pyrimidin-7-yl)-1′-(2,2-difluoroethyl)-4-methylspiro[isoindoline-1,4′-piperidin]-3-one]	–	50 to 1000 nM	–
–	O=C1NCc2cc(-n3cc(-c4cscn4)c4cncnc43)ccc21 [Cpd. No. 25, 5-(5-(thiazol-4-yl)-7H-pyrrolo[2,3-d]pyrimidin-7-yl)isoindolin-1-one]	100 to 10000 nM	–	–
–	O=C1NCc2nc(-n3ccc4cnccc43)ccc21 [Cpd. No. 5, 2-(1H-pyrrolo[3,2-c]pyridin-1-yl)-6,7-dihydro-5H-pyrrolo[3,4-b]pyridin-5-one]	100 to 10000 nM	–	–
–	O=C1NCc2nc(-n3ccc4cnccc43)ncc21 [Cpd. No. 14, 2-(1H-pyrrolo[3,2-c]pyridin-1-yl)-6,7-dihydro-5H-pyrrolo[3,4-d]pyrimidin-5-one]	100 to 10000 nM	–	–
–	Cc1ncnc2c1ccn2-c1ccc2c(c1)CNC2=O [Cpd. No. 7, 5-(4-methyl-7H-pyrrolo[2,3-d]pyrimidin-7-yl) isoindolin-1-one]	100 to 10000 nM	–	–
< 10 nM	CC1(C)NC(=O)c2c(Cl)cc(-n3ccc4cncnc43)cc21 [Cpd. No. 18, 7-chloro-3,3-dimethyl-5-(7H-pyrrolo [2,3-d]pyrimidin-7-yl) isoindolin-1-one]	–	50 to 1000 nM	< 10 nM
–	N#Cc1ccccc1-c1cn(-c2ccc3c(c2)CNC3=O)c2ncncc12 [Cpd. No. 26, 2-(7-(1-oxoisoindolin-5-yl)-7H-pyrrolo[2,3-d]pyrimidin-5-yl)benzonitrile]	100 to 10000 nM	–	–
–	O=C1NCc2nc(-n3ccc4cncnc43)ccc21 [Cpd. No. 32, 2-(7H-pyrrolo[2,3-d]pyrimidin-7-yl)-6,7-dihydro-5H-pyrrolo[3,4-b]pyridin-5-one]	–	50 to 1000 nM	–
